Laboratory results published in patent US11725002B2, “Detection reagents and kit for identifying oxidized state and glycated state of low-density lipoproteins” (FUSO PHARMACEUTICAL INDUSTRIES, LTD., priority 2017, dated 2023).

Legend:
lipid radicals in LDL = experiment: Fluorescence detection of lipid radicals in LDL with NBD-Pen
Method: To a solution of 20 μg protein/ml of LDL and 10 μM of NBD-Pen in phosphate buffered saline (PBS) containing 0.5% of MeCN were added 0-3 μM of CuSO4, FeSO4 or Hemin, to generate lipid radicals.
Specifically, to a solution of 20 μg protein/ml of LDL and 10 μM of NBD-Pen in phosphate buffered saline (PBS; pH 7.4) containing 0.5% of MeCN were added 0-3 μM of Hemin, to generate lipid radicals. After incubation for 60 minutes at 37° C., these reacted solutions were investigated by the respective methods.
For fluorescence detection using NBD-Pen according to the present invention, the fluorescence intensities obtained in Example 1 were expressed as ratios based on the results without addition of Hemin.

[1] = tested on: plaques of thoracic aorta; experiment: Fluorescence mapping of lipid oxide in aorta of arteriosclerosis model mouse; format: in vivo, Apo-E knockout mouse; conditions: high fat diet 3 weeks, 500 μM/kg intraperitoneal, 15 minutes after administration, 470 nm/530 nm
Method: A 6-week-old male Apo-E knockout mouse (Apo−/−) was fed with a high fat diet, and 3 weeks later, NBD-Pen was administered at 500 μM/kg by intraperitoneal injection.
Fifteen minutes after NBD-Pen administration, the mouse was subjected to three types of mixed anesthesia and sacrificed, and the thoracic aorta was immediately removed. […] An oil red stained image of plaques of the same aortic sample was taken with a digital camera (FIG. 7b).

[2] = Lipid peroxide (LOOH) detection in LDL with fluorescent probe DPPP; conditions: concentration range used in Example 2
Method: The absorption band around 234 nm of conjugated dienes formed during lipid oxidation was tracked by absorbance spectrophotometry. In addition, a measurement was performed by use of diphenyl-1-pyrenylphosphate (DPPP), which is a lipid peroxide (LOOH) detection fluorescent probe.

| Compound | fluorescence intensities (λex: 470 nm, λem: 530 nm) (lipid radicals in LDL; 20 μg protein/ml LDL, 10 μM NBD-Pen, 0-3 μM CuSO4, FeSO4 or Hemin, 60 minutes at 37° C.) | sensitivity of fluorescence detection (lipid radicals in LDL; Hemin addition, compared with Cu2+ and Fe2+) | match of NBD-Pen fluorescence areas with oil-red stained plaques [1] | detection of lipid peroxides [2] |
| --- | --- | --- | --- | --- |
| 2,2,6-trimethyl-4-(4-nitrobenzo[1,2,5]oxadiazol-7-ylamino)-6-pentylpiperadine-1-oxyl [NBD-Pen] | increased in a concentration-dependent manner | high sensitivity of fluorescence detection | completely matched |  |
| O=P(Oc1ccccc1)(Oc1ccccc1)Oc1ccc2ccc3cccc4ccc1c2c34 [DPPP, diphenyl-1-pyrenylphosphate] |  |  |  | neither method could detect lipid peroxides |
